From US12421252B2, “Spiro (isobenzofuranazetidine) compounds for the treatment of autoimmune disease” (Hoffmann-La Roche Inc., priority 2020, dated 2025)

Assays:
[1] = molecular target: T1, hERG channel (Homo sapiens, UniProt Q12809); assay: hERG channel inhibition assay (patch-clamp, CHO hERG cells); assay type: cell-based; conditions: for IC50 / IC20: CHO hERG cells, whole-cell patch-clamp; for IC20: human, CHO cells stably expressing hERG; for hERG IC20/TLR7 IC50 / hERG IC20/TLR8 IC50 / hERG IC20/TLR9 IC50: safety ratio
T1 construct: expressed in transfected cells
Experimental: hERG Channel Inhibition Assay:
The hERG K+ channels were cloned in humans and stably expressed in a CHO (Chinese hamster ovary) cell line. CHOhERG cells were used for patch-clamp (voltage-clamp, whole-cell) experiments. Cells were stimulated by a voltage pattern to activate hERG channels and conduct IKhERG Currents (rapid delayed outward rectifier potassium current of the hERG channel). After the cells were stabilized for a few minutes, the amplitude and kinetics of IKhERG were recorded at a stimulation frequency of 0.1 Hz, (6 bpm). Thereafter, the test compound was added to the preparation at increasing concentrations. For each concentration, an attempt was made to reach a steady-state effect, usually, this was achieved within 3-10 min at which time the next highest concentration was applied. The amplitude and kinetics of IKhERG are recorded in each concentration of the drug which were compared to the control values (taken as 100%). (references: Redfern W S, Carlsson L, Davis A S, Lynch W G, MacKenzie I, Palethorpe S, Siegl P K, Strang I, Sullivan A T, Wallis R, Camm A J, Hammond T G. 2003; Relationships between preclinical cardiac electrophysiology, clinical QT interval prolongation and torsade de pointes for a broad range of drugs: evidence for a provisional safety margin in drug development. Cardiovasc. Res. 58:32-45, Sanguinetti M C, Tristani-Firouzi M. 2006; hERG potassium channels and cardiac arrhythmia. Nature 440:463-469, Webster R, Leishman D, Walker D. 2002; Towards a drug concentration effect relationship for QT prolongation and torsades de pointes. Curr. Opin. Drug Discov. Devel. 5:116-26).

[2] = molecular target: T2, CYP3A4 (Homo sapiens, UniProt P08684); assay: CYP inhibition assay in human liver microsome, CYP3A4; assay type: in vitro ADME; conditions: percentage inhibition, substrate Midazolam 5 μM, <0: not or weak inhibitor
T2 construct: tissue BD-Gentest 452117; host or cells: human liver microsomes
Experimental: This is a high throughput screening assay used for assessment of reversible inhibition of CYP2C9, CYP2D6, and CYP3A4 activity of test compounds in human liver microsome (HLM) in early discovery stage.
Procedure 10 mM DMSO stock solutions of test compounds were diluted in DMSO to generate 2 mM intermediate stock solution. 250 nL of intermediate stock solution were transferred in duplicate into 3 separate 384 well microtitre plates (assay-ready plates). A mixture of HLM and each substrate was made up. 45 μL of HLM substrate mix was then transferred to each well of an assay ready plate and mixed. The negative (solvent) and positive controls (standard inhibitor for each CYP) were included in each assay ready plate. The assay ready plate was warmed to 37° C. in an incubator over 10 minutes. 5 μL pre-warmed NADPH regenerating system was added to each incubation well to start the reaction. Final incubation volume was 50 μL. The assay plate then was placed back in the 37° C. incubator. After incubation (10 minutes for CYP2D6) for 5 minutes, incubates were quenched by addition of 50 μL 100% acetonitrile containing internal standards (400 ng/mL 13C6-4′-OH-Diclofenac, 20 ng/mL D3-Dextrorphan and 20 ng/mL D4-1′OH-Midazolam). The supernatants were collected for RapidFire/MS/MS analysis.
RapidFire online solid phase extraction/sample injection system (Agilent) coupled with API4000 triple quadrupole mass spectrometer (AB Sciex) were used for sample analysis. The mobile phase composed of acetonitrile and water supplemented with 0.1% formic acid. A C4 solid phase extraction cartridge is used for sample separation. MS detection is achieved in positive ion MRM mode.
Data analysis Peak areas for substrate, metabolite and internal standard are determined using the RapidFire integrator software (version 3.6.12009.12296). Peak area ratios (PAR) of metabolite and internal standard (stable-labelled metabolite) are then calculated. The measurement window for each experiment is then defined: PAR (0% activity)=average PAR for all incubations containing concentrated inhibitor; Par (100% activity)=average PAR for all incubations containing no inhibitor (DMSO controls); % Activity (test inhibitor)=[PAR (test inhibitor)-PAR (0% activity)]/[PAR (100% activity)-PAR (0% activity)]; % Inhibition (test inhibitor)=100-% Activity (test inhibitor).

T2 sequence (P08684 whole entry): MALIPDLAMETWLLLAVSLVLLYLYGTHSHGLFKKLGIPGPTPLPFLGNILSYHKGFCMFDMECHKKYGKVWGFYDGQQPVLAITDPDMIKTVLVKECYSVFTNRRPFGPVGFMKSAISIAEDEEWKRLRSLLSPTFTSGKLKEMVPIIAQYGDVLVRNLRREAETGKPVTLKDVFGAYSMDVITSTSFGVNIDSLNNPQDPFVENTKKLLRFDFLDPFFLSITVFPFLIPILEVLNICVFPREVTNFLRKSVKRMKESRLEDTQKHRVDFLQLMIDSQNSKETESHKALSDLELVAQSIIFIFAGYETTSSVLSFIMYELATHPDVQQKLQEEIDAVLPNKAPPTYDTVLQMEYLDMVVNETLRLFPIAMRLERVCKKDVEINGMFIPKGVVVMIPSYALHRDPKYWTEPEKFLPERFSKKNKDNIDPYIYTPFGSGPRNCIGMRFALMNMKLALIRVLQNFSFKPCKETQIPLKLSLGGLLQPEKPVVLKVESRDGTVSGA
T1 sequence (Q12809 whole entry): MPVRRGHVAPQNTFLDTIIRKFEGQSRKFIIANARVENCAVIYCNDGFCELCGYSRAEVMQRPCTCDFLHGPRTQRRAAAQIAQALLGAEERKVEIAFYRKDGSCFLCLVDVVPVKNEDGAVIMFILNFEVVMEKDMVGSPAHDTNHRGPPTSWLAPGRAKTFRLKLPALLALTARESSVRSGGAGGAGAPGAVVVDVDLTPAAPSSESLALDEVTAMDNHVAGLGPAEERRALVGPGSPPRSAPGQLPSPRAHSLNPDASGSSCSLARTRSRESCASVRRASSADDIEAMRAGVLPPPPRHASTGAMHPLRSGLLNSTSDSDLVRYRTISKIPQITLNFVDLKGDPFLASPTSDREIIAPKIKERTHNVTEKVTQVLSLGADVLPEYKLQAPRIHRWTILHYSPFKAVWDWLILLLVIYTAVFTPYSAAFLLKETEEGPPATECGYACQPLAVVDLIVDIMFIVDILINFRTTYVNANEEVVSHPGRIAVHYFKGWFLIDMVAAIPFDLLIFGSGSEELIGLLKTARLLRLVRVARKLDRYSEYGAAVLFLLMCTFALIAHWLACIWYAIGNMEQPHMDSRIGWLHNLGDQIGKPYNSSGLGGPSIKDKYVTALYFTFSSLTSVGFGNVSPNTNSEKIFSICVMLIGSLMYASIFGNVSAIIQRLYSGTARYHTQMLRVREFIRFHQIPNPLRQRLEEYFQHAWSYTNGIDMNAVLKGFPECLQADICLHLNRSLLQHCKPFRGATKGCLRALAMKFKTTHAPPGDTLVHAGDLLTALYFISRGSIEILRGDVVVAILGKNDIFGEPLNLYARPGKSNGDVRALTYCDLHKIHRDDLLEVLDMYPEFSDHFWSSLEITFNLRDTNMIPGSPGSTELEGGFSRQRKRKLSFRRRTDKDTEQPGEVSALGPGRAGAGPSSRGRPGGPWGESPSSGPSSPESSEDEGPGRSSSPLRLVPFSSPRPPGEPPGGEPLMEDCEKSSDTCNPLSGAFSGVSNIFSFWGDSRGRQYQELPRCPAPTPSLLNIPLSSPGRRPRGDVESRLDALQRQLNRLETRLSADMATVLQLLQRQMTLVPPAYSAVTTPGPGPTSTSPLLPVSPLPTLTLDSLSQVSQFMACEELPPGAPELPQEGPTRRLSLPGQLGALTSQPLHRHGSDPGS

Structure (SMILES) | IC50 [1] | IC20 [1] | hERG IC20/TLR7 IC50 [1] | hERG IC20/TLR8 IC50 [1] | hERG IC20/TLR9 IC50 [1] | CYP (%) 3A4 [2]
[2H]c1ccc2c(N3C[C@H](CN4CC5(C4)OCc4cc(N6CC(C)(N)C6)cnc45)O[C@H](C)C3)ccc(C#N)c2n1 [Example 21, 5-[(2S,6R)-2-[[3-(3-amino-3-methyl-azetidin-1-yl)spiro[5H-furo[3,4-b]pyridine-7,3′-azetidine]-1′-yl]methyl]-6-methyl-morpholin-4-yl]-2-deuterio-quinoline-8-carbonitrile] | > 20 µM | > 10 µM | >1428 | >588 | >181 | 12.5%
C[C@@H]1CN(c2ccc(C#N)n3ncc(F)c23)C[C@H](CN2CC3(C2)OCc2cc(N4CC(C)(N)C4)ncc23)O1 [Example 24, 4-[(2S,6R)-2-[[6-(3-amino-3-methyl-azetidin-1-yl)spiro[1H-furo[3,4-c]pyridine-3,3′-azetidine]-1′-yl]methyl]-6-methyl-morpholin-4-yl]-3-fluoro-pyrazolo[1,5-a]pyridine-7-carbonitrile] | – | – | – | – | – | −0.5%
[2H]c1ccc2c(N3C[C@H](CN4CC5(C4)OCc4cc(N6CC(N)C6)cnc45)O[C@H](C)C3)ccc(C#N)c2n1 [Example 20, 5-[(2S,6R)-2-[[3-(3-aminoazetidin-1-yl)spiro[5H-furo[3,4-b]pyridine-7,3′-azetidine]-1′-yl]methyl]-6-methyl-morpholin-4-yl]-2-deuterio-quinoline-8-carbonitrile] | – | – | – | – | – | 40.5%
C[C@@H]1CN(c2ccc(C#N)n3nccc23)C[C@H](CN2CC3(C2)OCc2cc(N4CC5(CNCCO5)C4)ccc23)O1 [Example 7, 4-[(2R,6S)-2-methyl-6-[[6-(5-oxa-2,8-diazaspiro[3.5]nonan-2-yl)spiro[1H-isobenzofuran-3,3′-azetidine]-1′-yl]methyl]morpholin-4-yl]pyrazolo[1,5-a]pyridine-7-carbonitrile] | – | – | – | – | – | 16.5%
C[C@@H]1CN(c2ccc(C#N)n3ncc(F)c23)C[C@H](CN2CC3(C2)OCc2cc(N4CC5(CN(C)C5)C4)ccc23)O1 [Example 2, 3-fluoro-4-[(2R,6S)-2-methyl-6-[[6-(6-methyl-2,6-diazaspiro[3.3]heptan-2-yl)spiro[1H-isobenzofuran-3,3′-azetidine]-1′-yl]methyl]morpholin-4-yl]pyrazolo[1,5-a]pyridine-7-carbonitrile] | > 20 µM | 9.9 µM | 990 | 396 | 220 | –
[2H]c1ccc2c(N3C[C@H](CN4CC5(C4)OCc4cc(N6C[C@H]7NCCO[C@@H]7C6)ccc45)O[C@H](C)C3)ccc(C#N)c2n1 [Example 17, 5-[(2S,6R)-2-[[6-[(4aR,7aR)-3,4,4a,5,7,7a-hexahydro-2H-pyrrolo[3,4-b][1,4]oxazin-6-yl]spiro[1H-isobenzofuran-3,3′-azetidine]-1′-yl]methyl]-6-methyl-morpholin-4-yl]-2-deuterio-quinoline-8-carbonitrile] | – | – | – | – | – | 14%
